Data as given in US8309558B2, “Compounds for the treatment of hepatitis C” (Bristol-Myers Squibb Company, priority 2008, dated 2012).

Key:
[1] = molecular target: T1, HCV NS5B RdRp genotype 1b (Hepatitis C virus genotype 1b, UniProt Q9WMX2); assay: Standard HCV NS5B RdRp enzyme assay; type: biochemical; conditions: Table 1a; HCV NS5B RdRp genotype 1b; read-out: IC50
T1 construct: The protein was expressed with an 18 amino acid C-terminal truncation to enhance the solubility; made in house; host or cells: E. coli BL21(DE3), pET21a vector
T1 sequence (Q9WMX2 2420-2992): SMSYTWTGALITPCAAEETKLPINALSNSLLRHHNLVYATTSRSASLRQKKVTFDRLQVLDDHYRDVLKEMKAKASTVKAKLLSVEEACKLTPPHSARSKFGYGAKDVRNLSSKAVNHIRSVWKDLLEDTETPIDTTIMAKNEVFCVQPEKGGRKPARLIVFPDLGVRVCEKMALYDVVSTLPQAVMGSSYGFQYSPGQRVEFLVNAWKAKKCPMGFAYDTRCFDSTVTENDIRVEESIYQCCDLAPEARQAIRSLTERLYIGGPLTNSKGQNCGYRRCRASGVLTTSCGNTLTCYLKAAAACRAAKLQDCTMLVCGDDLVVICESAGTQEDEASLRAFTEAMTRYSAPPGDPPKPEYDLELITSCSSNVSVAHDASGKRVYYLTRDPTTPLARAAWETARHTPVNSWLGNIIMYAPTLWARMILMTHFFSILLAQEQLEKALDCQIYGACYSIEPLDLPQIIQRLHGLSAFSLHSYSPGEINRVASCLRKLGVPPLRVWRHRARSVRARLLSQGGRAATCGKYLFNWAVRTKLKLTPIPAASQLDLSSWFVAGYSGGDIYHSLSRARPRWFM
How it was run: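 C-terminally truncated (18 aa) genotype 1b NS5B from E. coli, 28 nM, with 6 nM polyA template, 180 nM biotinylated oligo-dT12 primer and 3H-UTP (0.29 μM total UTP). Hepes pH 7.5 buffer with 2% DMSO; 60 min at 30° C. EDTA stop, SPA read-out; IC50 from seven concentrations by four-parameter fit.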

HCV replicon cells = assay: HCV replicon FRET / luciferase assay (96-well plates); type: cell-based; conditions: Hepatitis C virus, Table 1a; HCV replicon; read-out: EC50
How it was run: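 Trypsinized replicon cells were seeded with compound titrations and incubated at 37 °C for various times. Alamar blue was added to gauge toxicity. Plates were then rinsed and either lysed with FRET peptide reagent for kinetic fluorescence reading or switched to phenol red-free DMEM for luciferase measurement.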

| SMILES | IC50 [1] | EC50 (HCV replicon cells) |
| --- | --- | --- |
| CNC(=O)c1c(-c2ccc(F)cc2)oc2ccc(-c3cccc(C(=O)NC4CCCC4)c3)cc12 | < 0.25 µM | < 0.25 µM |
| CNC(=O)c1c(-c2ccc(F)cc2)oc2ccc(-c3cccc(C(=O)NC4CCCCC4)c3)cc12 | < 0.25 µM | < 0.25 µM |
| CNC(=O)c1c(-c2ccc(F)cc2)oc2ccc(-c3cccc(C(=O)Nc4ccccc4OC)c3)cc12 | 0.25 to 1 µM | < 0.25 µM |
| CNC(=O)c1c(-c2ccc(F)cc2)oc2ccc(-c3cccc(C(=O)NC4CCCCCC4)c3)cc12 | < 0.25 µM | < 0.25 µM |
| CNC(=O)c1c(-c2ccc(F)cc2)oc2ccc(-c3cccc(C(=O)NC(C)c4ccccc4)c3)cc12 (stereo not shown) | < 0.25 µM | < 0.25 µM |
| CNC(=O)c1c(-c2ccc(F)cc2)oc2ccc(-c3cccc(C(=O)NC4CCC(C)CC4)c3)cc12 (stereo not shown) | < 0.25 µM | < 0.25 µM |
| CNC(=O)c1c(-c2ccc(F)cc2)oc2ccc(-c3cccc(C(=O)NC4CCC4)c3)cc12 | < 0.25 µM | < 0.25 µM |
| CNC(=O)c1c(-c2ccc(F)cc2)oc2ccc(-c3cccc(C(=O)Nc4cc(C)ccn4)c3)cc12 | 0.25 to 1 µM | < 0.25 µM |
| CNC(=O)c1c(-c2ccc(F)cc2)oc2ccc(-c3cccc(C(=O)Nc4ccccc4O)c3)cc12 | < 0.25 µM | < 0.25 µM |
| CNC(=O)c1c(-c2ccc(F)cc2)oc2ccc(-c3cccc(C(=O)Nc4cccnc4)c3)cc12 | < 0.25 µM | < 0.25 µM |
| CNC(=O)c1c(-c2ccc(F)cc2)oc2ccc(-c3cccc(C(=O)Nc4ccc(C)cn4)c3)cc12 | < 0.25 µM | < 0.25 µM |
| CNC(=O)c1c(-c2ccc(F)cc2)oc2ccc(-c3cccc(C(=O)Nc4ccccn4)c3)cc12 | < 0.25 µM | < 0.25 µM |
| CNC(=O)c1c(-c2ccc(F)cc2)oc2ccc(-c3cccc(C(=O)NC(C)c4ccc(F)cc4)c3)cc12 (stereo not shown) | < 0.25 µM | < 0.25 µM |
| CNC(=O)c1c(-c2ccc(F)cc2)oc2ccc(-c3cccc(C(=O)N4CCN(C)CC4)c3)cc12 | > 10 µM | > 10 µM |
| CNC(=O)c1c(-c2ccc(F)cc2)oc2ccc(-c3cccc(CO)c3)cc12 | > 10 µM | > 10 µM |
| CNC(=O)c1c(-c2ccc(F)cc2)oc2ccc(-c3cc(Br)cnc3F)cc12 | > 10 µM | > 10 µM |
| CNC(=O)c1c(-c2ccc(F)cc2)oc2ccc(-c3cccc(CCC(=O)O)c3)cc12 | 1 to 10 µM | > 10 µM |
| CNC(=O)c1c(-c2ccc(F)cc2)oc2ccc(-c3ccc(F)cc3Cl)cc12 | > 10 µM | > 10 µM |
| CCN(CC)C(=O)c1ccc(-c2ccc3oc(-c4ccc(F)cc4)c(C(=O)NC)c3c2)cc1 | 1 to 10 µM | > 10 µM |
| CNC(=O)c1c(-c2ccc(F)cc2)oc2ccc(-c3ccc(NC(=O)CCC(=O)O)cc3)cc12 | 1 to 10 µM | > 10 µM |
| CNC(=O)c1c(-c2ccc(F)cc2)oc2ccc(-c3ccc(F)cc3CN)cc12 | > 10 µM | > 10 µM |
| CNC(=O)c1c(-c2ccc(F)cc2)oc2ccc(-c3sccc3C(=O)O)cc12 | > 10 µM | > 10 µM |

| SMILES | IC50 [1] | EC50 (HCV replicon cells) |
| --- | --- | --- |
| CNC(=O)c1c(-c2ccc(F)cc2)oc2ccc(-c3ccc(F)c(C(=O)O)c3)cc12 | 1 to 10 µM | > 10 µM |
| CNC(=O)c1c(-c2ccc(F)cc2)oc2ccc(-c3cc(C(=O)O)cc([N+](=O)[O-])c3)cc12 | 0.25 to 1 µM | > 10 µM |
| CNC(=O)c1c(-c2ccc(F)cc2)oc2ccc(-c3ccc(C(=O)O)c(Cl)c3)cc12 | 1 to 10 µM | > 10 µM |
| CNC(=O)c1c(-c2ccc(F)cc2)oc2ccc(-c3cccc(C(=O)NCC(N)=O)c3)cc12 | > 10 µM | > 10 µM |
| CNC(=O)c1c(-c2ccc(F)cc2)oc2ccc(-c3cccc(C(=O)N4CCN(CCOC)CC4)c3)cc12 | > 10 µM | > 10 µM |
| CNC(=O)c1c(-c2ccc(F)cc2)oc2ccc(-c3cccc(C(=O)NCCc4ccccc4)c3)cc12 | > 10 µM | > 10 µM |
| CNC(=O)c1c(-c2ccc(F)cc2)oc2ccc(-c3ccc(C(=O)NCCC(N)=O)cc3)cc12 | > 10 µM | > 10 µM |
| CNC(=O)c1c(-c2ccc(F)cc2)oc2ccc(-c3ccc(C(=O)N(C)CCC#N)cc3)cc12 | 1 to 10 µM | > 10 µM |
| CNC(=O)c1c(-c2ccc(F)cc2)oc2ccc(-c3ccc(C(=O)N4CCC[C@H]4CO)cc3)cc12 | > 10 µM | > 10 µM |
| CNC(=O)c1c(-c2ccc(F)cc2)oc2ccc(-c3ccc(C(=O)NCC(N)=O)cc3)cc12 | > 10 µM | > 10 µM |
| CNC(=O)c1c(-c2ccc(F)cc2)oc2ccc(-c3ccc(C(=O)N(C)CCO)cc3)cc12 | 1 to 10 µM | > 10 µM |
| CNC(=O)c1c(-c2ccc(F)cc2)oc2ccc(-c3ccc(C(=O)N(C)CC(=O)N(C)C)cc3)cc12 | > 10 µM | > 10 µM |
| CNC(=O)c1c(-c2ccc(F)cc2)oc2ccc(-c3ccc(C(=O)NCCc4ccccc4Cl)cc3)cc12 | > 10 µM | > 10 µM |
| CNC(=O)c1c(-c2ccc(F)cc2)oc2ccc(-c3ccc(C(=O)NCCNC(C)=O)cc3)cc12 | > 10 µM | > 10 µM |
| CNC(=O)c1c(-c2ccc(F)cc2)oc2ccc(-c3ccc(C(=O)NCCc4ccc(OC)cc4)cc3)cc12 | > 10 µM | > 10 µM |
| CNC(=O)c1c(-c2ccc(F)cc2)oc2ccc(-c3ccc(C(=O)NCCOC)cc3)cc12 | > 10 µM | > 10 µM |
| CNC(=O)c1c(-c2ccc(F)cc2)oc2ccc(-c3cc(C(=O)O)ccc3Cl)cc12 | 1 to 10 µM | > 10 µM |
| CNC(=O)c1c(-c2ccc(F)cc2)oc2ccc(-c3ccc(Cl)c(C(=O)O)c3)cc12 | 1 to 10 µM | > 10 µM |
| CNC(=O)c1c(-c2ccc(F)cc2)oc2ccc(-c3cccc(C(=O)NC(CO)CO)c3)cc12 | 1 to 10 µM | > 10 µM |
| CNC(=O)c1c(-c2ccc(F)cc2)oc2ccc(-c3cccc(C(=O)Nc4cccc(C(=O)O)c4O)c3)cc12 | 0.25 to 1 µM | > 10 µM |
| CNC(=O)c1c(-c2ccc(F)cc2)oc2ccc(-c3cccc(C(=O)Nc4c(O)ncnc4O)c3)cc12 | 0.25 to 1 µM | > 10 µM |
| CNC(=O)c1c(-c2ccc(F)cc2)oc2ccc(-c3cccc(C(=O)N[C@@H](CO)C(N)=O)c3)cc12 | 1 to 10 µM | > 10 µM |

| SMILES | IC50 [1] | EC50 (HCV replicon cells) |
| --- | --- | --- |
| CNC(=O)c1c(-c2ccc(F)cc2)oc2ccc(-c3cccc(C(=O)N(C)c4ccncc4)c3)cc12 | 1 to 10 µM | > 10 µM |
| CNC(=O)c1c(-c2ccc(F)cc2)oc2ccc(-c3cccc(C(=O)NC(C)CC(=O)O)c3)cc12 (stereo not shown) | 0.25 to 1 µM | > 10 µM |
| CNC(=O)c1c(-c2ccc(F)cc2)oc2ccc(-c3cccc(C(=O)Nc4cccc(CC(=O)O)c4)c3)cc12 | < 0.25 µM | > 10 µM |
| CNC(=O)c1c(-c2ccc(F)cc2)oc2ccc(-c3cccc(C(=O)Nc4n[nH]cc4C(N)=O)c3)cc12 | 1 to 10 µM | > 10 µM |
| CCOC(=O)[C@@H]1CCCN1C(=O)c1cccc(-c2ccc3oc(-c4ccc(F)cc4)c(C(=O)NC)c3c2)c1 | 1 to 10 µM | > 10 µM |
| CNC(=O)c1c(-c2ccc(F)cc2)oc2ccc(-c3cccc(C(=O)Nn4c(C)nnc4C)c3)cc12 | 0.25 to 1 µM | > 10 µM |
| CNC(=O)c1c(-c2ccc(F)cc2)oc2ccc(-c3cccc(C(=O)Nc4cncc(C(=O)O)c4)c3)cc12 | 0.25 to 1 µM | > 10 µM |
| C=CCOC(=O)[C@H](C)NC(=O)c1cccc(-c2ccc3oc(-c4ccc(F)cc4)c(C(=O)NC)c3c2)c1 | < 0.25 µM | > 10 µM |
| CNC(=O)c1c(-c2ccc(F)cc2)oc2cc([N+](=O)[O-])c(-c3cccc(C(=O)O)c3)cc12 | 1 to 10 µM | > 10 µM |
| CNC(=O)c1c(-c2ccc(F)cc2)oc2ccc(-c3cccc(C(=O)NC4(C(=O)NS(=O)(=O)C5CC5)CC4)c3)cc12 | < 0.25 µM | > 10 µM |
| C=C[C@@H]1C[C@]1(NC(=O)c1cccc(-c2ccc3oc(-c4ccc(F)cc4)c(C(=O)NC)c3c2)c1)C(=O)NS(=O)(=O)C1CC1 | 0.25 to 1 µM | > 10 µM |
| CNC(=O)c1c(-c2ccc(F)cc2)oc2ccc(-c3cccc(C(=O)NS(C)(=O)=O)c3)cc12 | 0.25 to 1 µM | > 10 µM |
| CNC(=O)c1c(-c2ccc(F)cc2)oc2ccc(-c3cccc(C(=O)NC(C)(C)C(=O)O)c3)cc12 | 0.25 to 1 µM | > 10 µM |
| CN1CN(C)c2c(-c3cccc(C(=O)NC(C)(C)c4ccccc4)c3)ccc3oc(-c4ccc(F)cc4)c(c23)C1=O | > 10 µM | > 10 µM |
| CNC(=O)c1c(-c2ccc(F)cc2)oc2ccc(-c3cccc(S(=O)(=O)NC(C)(C)C)c3)cc12 | > 4 µM | > 10 µM |
| CNC(=O)c1c(-c2ccc(F)cc2)oc2ccc(-c3cccc(S(=O)(=O)NC(C)C)c3)cc12 | > 10 µM | > 10 µM |
| CNC(=O)c1c(-c2ccc(F)cc2)oc2ccc(-c3cccc(S(=O)(=O)NC4CC4)c3)cc12 | > 10 µM | > 10 µM |
| CNC(=O)c1c(-c2ccc(F)cc2)oc2ccc(-c3cccc(S(=O)(=O)N4CCOCC4)c3)cc12 | > 10 µM | > 10 µM |
| CNC(=O)c1c(-c2ccc(F)cc2)oc2ccc(-c3cccc(S(=O)(=O)NCc4ccccc4)c3)cc12 | > 10 µM | > 10 µM |
| CNC(=O)c1c(-c2ccc(F)cc2)oc2ccc(-c3cccc(S(=O)(=O)NCCO)c3)cc12 | 1 to 10 µM | > 10 µM |
| CNC(=O)c1c(-c2ccc(F)cc2)oc2ccc(-c3cccc(C(=O)N4Cc5ccccc5C4)c3)cc12 | > 0.4 µM | > 10 µM |
